This note sets out measurements from ChEMBL document CHEMBL1131541, “New synthetic inhibitors of microtubule depolymerization” (1998).

The source made the active and inactive calls. No cut-off for these calls is given here.

Chain of Tubulin beta chain (Bos taurus) (Q6B856 whole entry): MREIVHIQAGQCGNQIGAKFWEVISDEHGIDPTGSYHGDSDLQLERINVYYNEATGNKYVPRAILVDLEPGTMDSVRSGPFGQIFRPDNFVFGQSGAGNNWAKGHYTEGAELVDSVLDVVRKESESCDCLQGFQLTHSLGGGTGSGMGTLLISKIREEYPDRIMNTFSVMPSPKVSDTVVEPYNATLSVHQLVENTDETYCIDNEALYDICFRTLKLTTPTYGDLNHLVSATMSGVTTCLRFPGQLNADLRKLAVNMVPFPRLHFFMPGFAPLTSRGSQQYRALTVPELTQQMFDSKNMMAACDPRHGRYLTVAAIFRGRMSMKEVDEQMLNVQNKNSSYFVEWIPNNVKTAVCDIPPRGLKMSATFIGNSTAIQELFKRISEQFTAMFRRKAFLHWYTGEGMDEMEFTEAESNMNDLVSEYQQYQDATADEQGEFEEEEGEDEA

One test concerns the target Tubulin beta chain (Bos taurus) (UniProt Q6B856). Description: Effect on microtubule stabilization isolated from bovine brain.
Take `CCOC(=O)N[C@@H](c1ccc(OC)cc1)[C@@H](O)C(=O)OC1CC2C(C)(C)C1(C)[C@@]13C[C@H](C)c4ccccc4[C@@]21O3` (some centres not stated): the Relative stability worked out at 125%.

In the case of `CCOC(=O)N[C@@H](c1ccc(Cl)cc1)[C@@H](O)C(=O)OC1CC2C(C)(C)C1(C)[C@@]13C[C@H](C)c4ccccc4[C@@]21O3` (some centres not stated), the Relative stability came out at 193%.

As to `C=C1C[C@@]23O[C@]2(c2ccccc21)C1CC(OC(=O)[C@H](O)[C@@H](NC(=O)OCCCC)c2ccccc2)C3(C)C1(C)C` (some centres not stated), the Relative stability worked out at 83%.

Turning to `CCOC(=O)N[C@@H](c1ccsc1)[C@@H](O)C(=O)OC1CC2C(C)(C)C1(C)[C@@]13C[C@@H](C)c4ccccc4[C@@]21O3` (some centres not stated), the Relative stability is 58%.

With `CC(C)NC(=O)N[C@@H](c1ccsc1)[C@@H](O)C(=O)OC1CC2C(C)(C)C1(C)[C@@]13CC(C)c4ccccc4[C@@]21O3` (some centres not stated), the Relative stability came to 56%.

Regarding `CCCCNC(=O)N[C@@H](c1ccccc1)[C@@H](O)C(=O)OC1CC2C(C)(C)C1(C)[C@@]13C[C@H](C)c4ccccc4[C@@]21O3` (some centres not stated), the Relative stability came out at 130%.

Take `C=C1C[C@@]23O[C@]2(c2ccccc21)C1CC(OC(=O)[C@H](O)[C@@H](NC(=O)CC(C)C)c2ccccc2)C3(C)C1(C)C` (some centres not stated): the Relative stability turned out to be 101%.

In the case of `CCOC(=O)N[C@@H](c1ccccc1)[C@@H](O)C(=O)OC1CC2C(C)(C)C1(C)[C@@]13C[C@H](C)c4ccccc4[C@@]21O3` (some centres not stated), the Relative stability was 209%.

As to `C[C@H]1C[C@@]23O[C@]2(c2ccccc21)C1CC(OC(=O)[C@H](O)[C@@H](NC(=O)OC(C)(C)C)c2ccccc2)C3(C)C1(C)C` (some centres not stated), the Relative stability stood at 148%.

With `CCOC(=O)N[C@@H](c1ccc(O)cc1)[C@@H](O)C(=O)OC1CC2C(C)(C)C1(C)[C@@]13C[C@H](C)c4ccccc4[C@@]21O3` (some centres not stated), the Relative stability came to 306%.

Consider `CCCCOC(=O)N[C@@H](c1ccncc1)[C@@H](O)C(=O)OC1CC2C(C)(C)C1(C)[C@@]13CC(C)c4ccccc4[C@@]21O3` (some centres not stated), for which the Relative stability is -3%.

As to `C=C1C[C@@]23O[C@]2(c2ccccc21)C1CC(OC(=O)[C@H](O)[C@@H](NC(C)=O)c2ccccc2)C3(C)C1(C)C` (some centres not stated), the Relative stability was 89%.

As for `CCOC(=O)N[C@@H](c1ccncc1)[C@@H](O)C(=O)OC1CC2C(C)(C)C1(C)[C@@]13C[C@H](C)c4ccccc4[C@@]21O3` (some centres not stated), the Relative stability is 1300%.

With `CCOC(=O)N[C@@H](c1cccc(F)c1)[C@@H](O)C(=O)OC1CC2C(C)(C)C1(C)[C@@]13C[C@H](C)c4ccccc4[C@@]21O3` (some centres not stated), the Relative stability was 139%.

Consider `CCOC(=O)N[C@@H](c1ccccc1)[C@@H](O)C(=O)OC1CC2C(C)(C)C1(C)[C@@]13C[C@](O)(CO)c4ccccc4[C@@]21O3` (some centres not stated), for which the Relative stability stood at 20%.

With `COC(=O)N[C@@H](c1ccccc1)[C@@H](O)C(=O)OC1CC2C(C)(C)C1(C)[C@@]13C[C@H](C)c4ccccc4[C@@]21O3` (some centres not stated), the Relative stability stood at 244%.

As to `C=C1C[C@@]23O[C@]2(c2ccccc21)C1CC(OC(=O)[C@H](O)[C@@H](NC(=O)OCC)c2ccsc2)C3(C)C1(C)C` (some centres not stated), the Relative stability worked out at 788%.

In the case of `CCOC(=O)N[C@@H](c1ccncc1)[C@@H](O)C(=O)OC1CC2C(C)(C)C1(C)[C@@]13C[C@](O)(CO)c4ccccc4[C@@]21O3` (some centres not stated), the Relative stability was 327%.

As for `CC(C)NC(=O)N[C@@H](c1ccccc1)[C@@H](O)C(=O)OC1CC2C(C)(C)C1(C)[C@@]13C[C@H](C)c4ccccc4[C@@]21O3` (some centres not stated), the Relative stability turned out to be 150%.

With `COC(=O)N[C@@H](c1ccncc1)[C@@H](O)C(=O)OC1CC2C(C)(C)C1(C)[C@@]13C[C@](O)(COC(C)=O)c4ccccc4[C@@]21O3` (some centres not stated), the Relative stability was determined as 116%.

With `C[C@H]1C[C@@]23O[C@]2(c2ccccc21)C1CC(OC(=O)[C@H](O)[C@@H](NC(=O)NC(C)(C)C)c2ccccc2)C3(C)C1(C)C` (some centres not stated), the Relative stability was 153%.

As for `C=C1C[C@@]23O[C@]2(c2ccccc21)C1CC(OC(=O)[C@H](O)[C@@H](NC(=O)OCC)c2ccc(C)cc2)C3(C)C1(C)C` (some centres not stated), the Relative stability is 142%.

Turning to `C=C1C[C@@]23O[C@]2(c2ccccc21)C1CC(OC(=O)[C@H](O)[C@@H](NC(=O)CC)c2ccccc2)C3(C)C1(C)C` (some centres not stated), the Relative stability turned out to be 108%.

On to `C=C1C[C@@]23O[C@]2(c2ccccc21)C1CC(OC(=O)[C@H](O)[C@@H](NC(=O)OCC)c2ccoc2)C3(C)C1(C)C` (some centres not stated), for which the Relative stability amounted to 119%.

In the case of `C=C1C[C@@]23O[C@]2(c2ccccc21)C1CC(OC(=O)[C@H](O)[C@@H](NC(=O)OC)c2ccccc2)C3(C)C1(C)C` (some centres not stated), the Relative stability amounted to 164%.

For `CCOC(=O)N[C@@H](c1ccccc1)[C@@H](O)C(=O)OC1CC2C(C)(C)C1(C)[C@@]13C[C@](O)(COC(C)=O)c4ccccc4[C@@]21O3` (some centres not stated), the Relative stability was 22%.

With `C=C1C[C@@]23O[C@]2(c2ccccc21)C1CC(OC(=O)[C@H](O)[C@@H](NC(=O)OCC)c2ccc(O)cc2)C3(C)C1(C)C` (some centres not stated), the Relative stability was found to be 130%.

For `COC(=O)N[C@@H](c1ccsc1)[C@@H](O)C(=O)OC1CC2C(C)(C)C1(C)[C@@]13CC(C)c4ccccc4[C@@]21O3` (some centres not stated), the Relative stability stood at 316%.

Turning to `C=C1C[C@@]23O[C@]2(c2ccccc21)C1CC(OC(=O)[C@H](O)[C@@H](NC(=O)CCC)c2ccccc2)C3(C)C1(C)C` (some centres not stated), the Relative stability stood at 114%.

For `C=C1C[C@@]23O[C@]2(c2ccccc21)C1CC(OC(=O)[C@H](O)[C@@H](NC(=O)NC(C)C)c2ccccc2)C3(C)C1(C)C` (some centres not stated), the Relative stability is 103%.

For the compound `CCOC(=O)N[C@@H](c1ccoc1)[C@@H](O)C(=O)OC1CC2C(C)(C)C1(C)[C@@]13C[C@H](C)c4ccccc4[C@@]21O3` (some centres not stated), the Relative stability came out at 190%.

Consider `C[C@H]1C[C@@]23O[C@]2(c2ccccc21)C1CC(OC(=O)[C@H](O)[C@@H](NC(=O)CCC2CCCC2)c2ccccc2)C3(C)C1(C)C` (some centres not stated), for which the Relative stability worked out at 86%.

Turning to `CCOC(=O)N[C@@H](c1ccncc1)[C@@H](O)C(=O)OC1CC2C(C)(C)C1(C)[C@@]13C[C@@H](C)c4ccccc4[C@@]21O3` (some centres not stated), the Relative stability came out at 227%.

Consider `CCOC(=O)N[C@@H](c1ccc(C)cc1)[C@@H](O)C(=O)OC1CC2C(C)(C)C1(C)[C@@]13C[C@H](C)c4ccccc4[C@@]21O3` (some centres not stated), for which the Relative stability came out at 152%.

Take `C=C1C[C@@]23O[C@]2(c2ccccc21)C1CC(OC(=O)[C@H](O)[C@@H](NC(=O)OCC)c2ccc(F)cc2)C3(C)C1(C)C` (some centres not stated): the Relative stability amounted to 152%.

For `C=C1C[C@@]23O[C@]2(c2ccccc21)C1CC(OC(=O)[C@H](O)[C@@H](NC(=O)OCC)c2ccccc2)C3(C)C1(C)C` (some centres not stated), the Relative stability was found to be 228%.

Take `COC(=O)N[C@@H](c1ccncc1)[C@@H](O)C(=O)OC1CC2C(C)(C)C1(C)[C@@]13C[C@]4(CO4)c4ccccc4[C@@]21O3` (some centres not stated): the Relative stability stood at 423%.

For `C=C1C[C@@]23O[C@]2(c2ccccc21)C1CC(OC(=O)[C@H](O)[C@@H](NC(=O)OCC)c2cccs2)C3(C)C1(C)C` (some centres not stated), the Relative stability was 215%.

`COC(=O)N[C@@H](c1ccc(O)cc1)[C@@H](O)C(=O)OC1CC2C(C)(C)C1(C)[C@@]13CC(C)c4ccccc4[C@@]21O3` (some centres not stated): the Relative stability turned out to be 293%.

For `CCOC(=O)N[C@@H](c1ccsc1)[C@@H](O)C(=O)OC1CC2C(C)(C)C1(C)[C@@]13C[C@H](C)c4ccccc4[C@@]21O3` (some centres not stated), the Relative stability was found to be 788%.

As to `C=C1C[C@@]23O[C@]2(c2ccccc21)C1CC(OC(=O)[C@H](O)[C@@H](NC(=O)OCC)c2cccnc2)C3(C)C1(C)C` (some centres not stated), the Relative stability was 65%.

As for `CCOC(=O)N[C@@H](c1cccs1)[C@@H](O)C(=O)OC1CC2C(C)(C)C1(C)[C@@]13C[C@H](C)c4ccccc4[C@@]21O3` (some centres not stated), the Relative stability stood at 311%.

For the compound `CCCC(=O)N[C@@H](c1ccncc1)[C@@H](O)C(=O)OC1CC2C(C)(C)C1(C)[C@@]13CC(C)c4ccccc4[C@@]21O3` (some centres not stated), the Relative stability was determined as 862%.

Regarding `C=C1C[C@@]23O[C@]2(c2ccccc21)C1CC(OC(=O)[C@H](O)[C@@H](NC(=O)OCC)c2ccc(OC)cc2)C3(C)C1(C)C` (some centres not stated), the Relative stability worked out at 95%.

On to `CCOC(=O)N[C@@H](c1ccc(F)cc1)[C@@H](O)C(=O)OC1CC2C(C)(C)C1(C)[C@@]13C[C@H](C)c4ccccc4[C@@]21O3` (some centres not stated), for which the Relative stability is 139%.

With `CCCCOC(=O)N[C@@H](c1ccc(O)cc1)[C@@H](O)C(=O)OC1CC2C(C)(C)C1(C)[C@@]13CC(C)c4ccccc4[C@@]21O3` (some centres not stated), the Relative stability was determined as 80%.

Regarding `C=C1C[C@@]23O[C@]2(c2ccccc21)C1CC(OC(=O)[C@H](O)[C@@H](NC(=O)NC(C)(C)C)c2ccccc2)C3(C)C1(C)C` (some centres not stated), the Relative stability stood at 92%.

As to `CCCC(=O)N[C@@H](c1ccsc1)[C@@H](O)C(=O)OC1CC2C(C)(C)C1(C)[C@@]13CC(C)c4ccccc4[C@@]21O3` (some centres not stated), the Relative stability was found to be 91%.

Turning to `CCOC(=O)N[C@@H](c1cccnc1)[C@@H](O)C(=O)OC1CC2C(C)(C)C1(C)[C@@]13C[C@H](C)c4ccccc4[C@@]21O3` (some centres not stated), the Relative stability turned out to be 119%.

`C=C1C[C@@]23O[C@]2(c2ccccc21)C1CC(OC(=O)[C@H](O)[C@@H](NC(=O)OCC)c2ccncc2)C3(C)C1(C)C` (some centres not stated): the Relative stability was found to be 423%.

For `C=C1C[C@@]23O[C@]2(c2ccccc21)C1CC(OC(=O)[C@H](O)[C@@H](NC(=O)OC(C)(C)C)c2ccccc2)C3(C)C1(C)C` (some centres not stated), the Relative stability was 27%.

Consider `C=C1C[C@@]23O[C@]2(c2ccccc21)C1CC(OC(=O)[C@H](O)[C@@H](NC(=O)OCC)c2cccc(F)c2)C3(C)C1(C)C` (some centres not stated), for which the Relative stability was 106%.

As for `C=C1C[C@@]23O[C@]2(c2ccccc21)C1CC(OC(=O)[C@H](O)[C@@H](NC(=O)NCCCC)c2ccccc2)C3(C)C1(C)C` (some centres not stated), the Relative stability is 68%.

Take `C=C1C[C@@]23O[C@]2(c2ccccc21)C1CC(OC(=O)[C@H](O)[C@@H](NC(=O)OCC)c2ccc(Cl)cc2)C3(C)C1(C)C` (some centres not stated): the Relative stability is 163%.

For the compound `CCCC(=O)N[C@@H](c1ccccc1)[C@@H](O)C(=O)OC1CC2C(C)(C)C1(C)[C@@]13C[C@H](C)c4ccccc4[C@@]21O3` (some centres not stated), the Relative stability worked out at 168%.

The next test shares this target. Description: Compound was tested for its effect on microtubule stabilization isolated from bovine brain; NS: not significant.
Consider `C=C1C[C@@]23O[C@]2(c2ccccc21)C1CC(OC(=O)[C@H](O)[C@@H](NC(=O)NCC)c2ccccc2)C3(C)C1(C)C` (some centres not stated), for which the Relative stability entry is “inactive”.

`CCOC(=O)N[C@@H](c1ccsc1)[C@@H](O)C(=O)OC1CC2C(C)(C)C1(C)[C@@]13C[C@](O)(COC(C)=O)c4ccccc4[C@@]21O3` (some centres not stated): the Relative stability entry is “inactive”.
